{"source": "ChEMBL document CHEMBL5214920", "about": "“Emerging impact of triazoles as anti-tubercular agent” (Eur J Med Chem, 2022)", "data": [{"tested_on": "Mycobacterium tuberculosis", "assay": "Antitubercular activity against Mycobacterium tuberculosis H37Rv ATCC 27294 assessed as bacterial growth inhibition measured after 7 days by MABA method", "format": "functional", "details": "H37Rv ATCC 27294, 168 h, time 7 day", "values": [{"smiles": "COc1ccc(OCc2cn(CC(=O)Nc3ccc(C)cc3)nn2)cc1", "MIC": "> 25 µg/mL"}, {"smiles": "COc1ccc(OCc2cn(CC(=O)Nc3ccccc3)nn2)cc1", "MIC": "> 25 µg/mL"}, {"smiles": "O=C(Cn1cc(COc2ccc([N+](=O)[O-])cc2)nn1)Nc1cccc(Cl)c1", "MIC": "> 25 µg/mL"}, {"smiles": "Cc1cccc(NC(=O)Cn2cc(COc3ccccc3)nn2)c1", "MIC": "> 25 µg/mL"}, {"smiles": "Cc1cccc(NC(=O)Cn2cc(COc3ccc([N+](=O)[O-])cc3)nn2)c1", "MIC": "> 25 µg/mL"}, {"smiles": "COc1ccc(OCc2cn(CC(=O)Nc3ccc(Cl)cc3)nn2)cc1", "MIC": "> 25 µg/mL"}, {"smiles": "O=C(Cn1cc(COc2ccccc2)nn1)Nc1ccc(Cl)cc1", "MIC": "> 25 µg/mL"}, {"smiles": "COc1ccc(OCc2cn(CC(=O)Nc3ccccc3Cl)nn2)cc1", "MIC": "> 25 µg/mL"}, {"smiles": "COc1ccc(OCc2cn(CC(=O)Nc3cccc(Cl)c3)nn2)cc1", "MIC": "> 25 µg/mL"}, {"smiles": "COc1ccc(OCc2cn(CC(=O)Nc3cccc(C)c3)nn2)cc1", "MIC": "> 25 µg/mL"}, {"smiles": "Cc1ccccc1NC(=O)Cn1cc(COc2ccccc2)nn1", "MIC": "> 25 µg/mL"}, {"smiles": "O=C(c1ccccc1)C1C(c2cc3ccccc3nc2N2NNc3ccccc32)C2CCCN2C12C(=O)Nc1ccccc12", "note": "(centres undefined)", "MIC": "1.13 µM"}, {"smiles": "O=C(Cn1cc(COc2ccccc2)nn1)Nc1cccc(Cl)c1", "MIC": "> 25 µg/mL"}, {"smiles": "O=C(Cn1cc(COc2ccc([N+](=O)[O-])cc2)nn1)Nc1ccccc1", "MIC": "> 25 µg/mL"}, {"smiles": "COc1ccc(OCc2cn(CC(=O)Nc3ccccc3C)nn2)cc1", "MIC": "> 25 µg/mL"}, {"smiles": "O=C(Cn1cc(COc2ccc([N+](=O)[O-])cc2)nn1)Nc1ccccc1Cl", "MIC": "> 25 µg/mL"}, {"smiles": "Cc1ccc(NC(=O)Cn2cc(COc3ccccc3)nn2)cc1", "MIC": "> 25 µg/mL"}]}, {"tested_on": "Mycobacterium tuberculosis", "assay": "Antitubercular activity against Mycobacterium tuberculosis H37Rv assessed as bacterial growth inhibition measured after 24 hrs by agar micro dilution method", "format": "functional", "details": "not given", "units": {"MIC": "µg/mL"}, "values": [{"smiles": "COc1ccccc1C1NN=C2C1Sc1nc(-c3ccc(C)cc3)nn12", "note": "(centres undefined)", "MIC": 3.12}, {"smiles": "Cc1ccc(-c2nc3n(n2)C2=NOC(c4cccc([N+](=O)[O-])c4)C2S3)cc1", "note": "(centres undefined)", "MIC": 3.12}, {"smiles": "Cc1ccc(-c2nc3n(n2)C2=NNC(c4ccc([N+](=O)[O-])cc4)C2S3)cc1", "note": "(centres undefined)", "MIC": 3.12}, {"smiles": "Cc1ccc(-c2nc3n(n2)C2=NOC(c4ccccc4)C2S3)cc1", "note": "(centres undefined)", "MIC": 3.12}, {"smiles": "Cc1ccc(-c2nc3n(n2)C2=NOC(c4ccc(N(C)C)cc4)C2S3)cc1", "note": "(centres undefined)", "MIC": 3.12}, {"smiles": "Cc1ccc(-c2nc3n(n2)C2=NOC(c4ccc([N+](=O)[O-])cc4)C2S3)cc1", "note": "(centres undefined)", "MIC": 3.12}, {"smiles": "Cc1ccc(-c2nc3n(n2)C2=NNC(c4ccc(Cl)cc4)C2S3)cc1", "note": "(centres undefined)", "MIC": 3.12}, {"smiles": "Cc1ccc(-c2nc3n(n2)C2=NNC(c4ccc(N(C)C)cc4)C2S3)cc1", "note": "(centres undefined)", "MIC": 3.12}, {"smiles": "COc1ccc(C2NN=C3C2Sc2nc(-c4ccc(C)cc4)nn23)cc1", "note": "(centres undefined)", "MIC": 3.12}, {"smiles": "Cc1ccc(-c2nc3n(n2)C2=NOC(c4ccc(Cl)cc4)C2S3)cc1", "note": "(centres undefined)", "MIC": 3.12}, {"smiles": "Cc1ccc(-c2nc3n(n2)C2=NOC(c4ccc(Br)cc4)C2S3)cc1", "note": "(centres undefined)", "MIC": 3.12}, {"smiles": "Cc1ccc(-c2nc3n(n2)C2=NNC(c4ccc(Br)cc4)C2S3)cc1", "note": "(centres undefined)", "MIC": 3.12}, {"smiles": "COc1ccc(C2ON=C3C2Sc2nc(-c4ccc(C)cc4)nn23)cc1", "note": "(centres undefined)", "MIC": 3.12}, {"smiles": "Cc1ccc(-c2nc3n(n2)C2=NNC(c4cccc([N+](=O)[O-])c4)C2S3)cc1", "note": "(centres undefined)", "MIC": 3.12}, {"smiles": "COc1ccccc1C1ON=C2C1Sc1nc(-c3ccc(C)cc3)nn12", "note": "(centres undefined)", "MIC": 3.12}]}, {"tested_on": "Mycobacterium tuberculosis", "assay": "Antitubercular activity against Mycobacterium tuberculosis H37Rv assessed as bacterial growth inhibition measured after 5 days by MABA method", "format": "functional", "details": "120 h, time 5 day", "units": {"MIC90": "µM"}, "values": [{"smiles": "COc1ccc(-n2ncn(Cc3cc4ccccc4nc3Cl)c2=O)cc1", "MIC": "0.078 µM"}, {"smiles": "CCc1nn(-c2ccccc2)c(=O)n1N(Cc1ccccc1)Cn1nnc2ccccc21", "MIC": "3.12 µg/mL"}, {"smiles": "COc1ccc(-n2ncn(Cc3cc4cc(OC)ccc4nc3Cl)c2=O)cc1", "MIC": "0.075 µM"}, {"smiles": "N/N=c1\\ccc2ccccc2o1", "MIC": "50 µg/mL"}, {"smiles": "CCc1nn(-c2ccccc2)c(=O)n1N(Cc1ccc(O)cc1)CN(CC)CC", "MIC": "6.25 µg/mL"}, {"smiles": "COc1ccc(-n2ncn(Cc3cc4cc(C)ccc4nc3Cl)c2=O)cc1", "MIC": "0.077 µM"}, {"smiles": "CC1=CC(C)Oc2cc(OCc3cn(Cc4cc(=O)oc5ccc(Cl)cc45)nn3)ccc21", "note": "(centres undefined)", "MIC": "6.25 µg/mL"}, {"smiles": "Cc1ccc2nc(O)c(Cn3cnn(-c4ccccc4)c3=O)cc2c1", "MIC90": 0.073}, {"smiles": "CC1=CC(C)Oc2cc(OCc3cn(Cc4cc(=O)oc5ccc6ccccc6c45)nn3)ccc21", "note": "(centres undefined)", "MIC": "6.25 µg/mL"}, {"smiles": "COc1ccc2nc(O)c(Cn3cnn(-c4ccccc4)c3=O)cc2c1", "MIC": "0.074 µM"}]}, {"tested_on": "Mycobacterium tuberculosis", "assay": "Antitubercular activity against Mycobacterium tuberculosis H37Rv assessed as bacterial growth inhibition measured after 7 days by REMA method", "format": "functional", "details": "168 h, time 7 day", "units": {"MIC": "µg/mL"}, "values": [{"smiles": "O=c1nc(NCc2cn(-c3ccc(Cl)cc3)nn2)sc2c(Cl)cc(C(F)(F)F)cc12", "MIC": 0.03}, {"smiles": "O=c1nc(NCc2cn(-c3ccc(Cl)cc3)nn2)sc2c(Cl)cc(Cl)cc12", "MIC": 0.03}, {"smiles": "O=c1nc(NCc2cn(-c3ccc(Cl)cc3)nn2)sc2c(Cl)cc(Br)cc12", "MIC": 0.03}, {"smiles": "O=c1nc(NCc2cn(-c3ccc(Cl)cc3)nn2)sc2c(Cl)cc(F)cc12", "MIC": 0.03}, {"smiles": "Cc1cc(=O)oc2cc(OCc3cn(CCCCCCCCn4cc(COc5cc6oc(=O)cc(C)c6cc5Cl)nn4)nn3)c(Cl)cc12", "MIC": 1.56}, {"smiles": "Cc1cc(=O)oc2cc(OCc3cn(CCCCCCCCCCn4cc(COc5cc6oc(=O)cc(C)c6cc5Cl)nn4)nn3)c(Cl)cc12", "MIC": 1.56}, {"smiles": "COc1ccc(-n2nc(C)cc2Cn2cncn2)cc1", "MIC": 100}]}]}
